# Measurements reported in BindingDB's records for doi:10.1021/jm8005433 (A* Star, 2008).
# Target: Bcl-2-like protein 1 (Homo sapiens, UniProt Q07817)
# Experiment: Fluorescence Polarization Assay
# Conditions: pH 8; 22 °C
# Method: In the fluorescence polarization assay, the Bcl-XL protein is incubated with a fluorescein-tagged Bak-BH3 peptide. The Bcl-XL:Bak-BH3 peptide complex is then titrated with the test compounds, and the displacement of the Bak-BH3 peptide is measured as a function of decreasing polarized fluorescence. The fluorescence polarization values were determined using a Tecan GeniosPro plate reader using the excitation/emission wavelengths 485/535 nm. The binding affinities are reported as the inhibitory concentration of the titrant required to displace 50% of the Bak-BH3 peptide (IC50).
# Chain of Bcl-2-like protein 1 (Q07817 whole entry): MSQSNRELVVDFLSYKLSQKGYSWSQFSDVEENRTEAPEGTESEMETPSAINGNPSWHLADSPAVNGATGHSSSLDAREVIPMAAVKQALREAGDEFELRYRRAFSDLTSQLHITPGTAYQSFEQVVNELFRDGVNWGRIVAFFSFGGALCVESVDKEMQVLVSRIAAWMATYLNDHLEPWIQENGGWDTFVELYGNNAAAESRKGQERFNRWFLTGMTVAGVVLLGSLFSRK
row,IC50,SMILES
1,12 µM,"C[n+]1cc2c3c(ccc2c2ccccc21)OCO3 [8-methyl-12,14-dioxa-8-azatetracyclo[8.7.0.0^{2,7}.0^{11,15}]heptadeca-1(10),2(7),3,5,8,11(15),16-heptaen-8-ium iodide]"
2,3 µM,"C[n+]1cc2c3c(ccc2c2cc(CCO)ccc21)OCO3 [4-(2-hydroxyethyl)-8-methyl-12,14-dioxa-8-azatetracyclo[8.7.0.0^{2,7}.0^{11,15}]heptadeca-1(10),2(7),3,5,8,11(15),16-heptaen-8-ium chloride]"
3,11 µM,"C[n+]1cc2c3c(ccc2c2cc(CO)ccc21)OCO3 [4-(hydroxymethyl)-8-methyl-12,14-dioxa-8-azatetracyclo[8.7.0.0^{2,7}.0^{11,15}]heptadeca-1(10),2(7),3,5,8,11(15),16-heptaen-8-ium chloride]"
4,18 µM,"Cn1cc2c(=O)c(O)ccc-2c2ccccc21 [7,8-dihydroxy-5-methylphenanthridin-5-ium chloride]"
5,20 µM,"Cn1cc2c(=O)c(O)ccc-2c2cc(CO)ccc21 [7,8-dihydroxy-2-(hydroxymethyl)-5-methylphenanthridin-5-ium chloride]"
6,11 µM,"COCc1ccc2c(c1)c1ccc3c(c1c[n+]2C)OCO3 [4-(methoxymethyl)-8-methyl-12,14-dioxa-8-azatetracyclo[8.7.0.0^{2,7}.0^{11,15}]heptadeca-1(10),2(7),3,5,8,11(15),16-heptaen-8-ium chloride]"
7,> 100 µM,"C[n+]1cc2c3c(ccc2c2ccccc21)OC(C)(C)O3 [8,13,13-trimethyl-12,14-dioxa-8-azatetracyclo[8.7.0.0^{2,7}.0^{11,15}]heptadeca-1(10),2(7),3,5,8,11(15),16-heptaen-8-ium iodide]"
8,6 µM,"COCCc1ccc2c(c1)c1ccc3c(c1c[n+]2C)OCO3 [4-(2-methoxyethyl)-8-methyl-12,14-dioxa-8-azatetracyclo[8.7.0.0^{2,7}.0^{11,15}]heptadeca-1(10),2(7),3,5,8,11(15),16-heptaen-8-ium chloride]"
9,22 µM,"Cn1cc2c(=O)c(O)ccc-2c2cc(CCO)ccc21 [7,8-dihydroxy-2-(2-hydroxyethyl)-5-methylphenanthridin-5-ium chloride]"

# More lines, now with the values behind:
row,SMILES,IC50
1,"COc1ccc2c(c[n+]([O-])c3ccccc23)c1OC [7,8-dimethoxy-5-oxidophenanthridin-5-ium]",> 100 µM
2,"COc1ccc2c(c[n+](C)c3ccccc23)c1OC [7,8-dimethoxy-5-methylphenanthridin-5-ium iodide]",> 100 µM
3,"[O-][n+]1cc2c3c(ccc2c2ccccc21)OCO3 [8-oxido-12,14-dioxa-8-azatetracyclo[8.7.0.0^{2,7}.0^{11,15}]heptadeca-1(10),2(7),3,5,8,11(15),16-heptaen-8-ium]",> 100 µM
4,C[n+]1cc2c3c(ccc2c2ccc4cc5c(cc4c21)OCO5)OCO3,19 µM
5,"CC1(C)Oc2ccc3c(c[n+]([O-])c4ccccc34)c2O1 [13,13-dimethyl-8-oxido-12,14-dioxa-8-azatetracyclo[8.7.0.0^{2,7}.0^{11,15}]heptadeca-1(10),2(7),3,5,8,11(15),16-heptaen-8-ium]",> 100 µM
6,COc1ccc2c(c[n+](C)c3c4cc5c(cc4ccc23)OCO5)c1OC,100 µM
7,"COc1ccc2c(c[n+](C)c3ccc(CO)cc23)c1OC [2-(hydroxymethyl)-7,8-dimethoxy-5-methylphenanthridin-5-ium chloride]",> 100 µM
